Results taken from patent US20220281802A1, “COMPOUNDS, PHARMACEUTICAL COMPOSITIONS, AND METHODS OF THEIR USE IN THE INHIBITION OF INTERACTION BETWEEN IL18 AND IL18R” (Beth Israel Deaconess Medical Center, Inc., priority 2019, published 2022).
Read-outs that look alike come from different tables or passages of the source. Values belong to the molecule of their own block, whether it stands above or below them.

How the values were obtained:
[1] = tested on: IFN-γ gene expression in NK92 cells; settings: Kalina et al., J. Immunol. 2000; positive control; cited from earlier work
[2] = tested on: human saphenous vein segments; assay: Cytokine expression in human saphenous vein ex vivo (LPS challenge, multiplex ELISA); type: cell-based; settings: LPS 100 ng/ml + compound 10 μM, 18 hours, culture supernatant
Text: Example 2. Cytokine Expression in Human Saphenous Vein Ex Vivo
In this example, a cytokine storm/inflammation common to many vascular conditions has been modeled by challenging human saphenous vein segments with lipopolysaccharide (LPS). Discarded human saphenous vein samples were collected from patients undergoing peripheral bypass grafting.
Samples were subjected to Human (h) TheRPA (Therapeutic Responses Predictor Assay) which is based on ex-vivo treatment of biopsies (explant cultures). The tissues were transferred to the lab within 30 min of their harvesting and cultured in DMEM+10% FBS+1% antibiotic/antimycotic (DMEM plus glucose, glutamine, sodium pyruvate: Gibco 11995-065; Heat Inactivated FBS: Gibco 16140-089; Antibiotic-Antimycotic: Gibco 15240-096) in the presence of vehicle, LPS (100 ng/ml) or LPS (100 ng/ml)+compound 1/compound 10/compound 15 (10 μM). After 18 hours, culture supernatants were collected and kept at −80° C. Cytokine levels in cell culture supernatant were measured by multiplex ELISA (Milliplex map human cytokine/chemokine magnetic bead kit from Millipore).

IL18 [3] = assay: HEK-Blue IL18 cell reporter assay (SEAP); type: cell-based; settings: Phase I; HEK-Blue IL18 cells, co-treated with recombinant human IL18 15 pM-100 pM, 18 hours; FIGS. 1A-1D
Experimental: HEK-Blue IL18 Cell Reporter Assay
HEK-Blue IL18 Cells (Invivogen California, USA), are a derivative of HEK293 cells that have been stably transfected with IL18Rα/IL18RAP genes and a SEAP reporter gene that is expressed and secreted in specific response to IL18. Cells were grown in […] tissue culture flasks with DMEM culture medium containing 4.5 g/L glucose, 10% (v/v) heat-inactivated fetal bovine serum, 50 μ/mL penicillin, 50 μg/mL streptomycin, 100 μg/mL Normocin and 2 mM L-glutamine at 37° C. in 5% CO2.
Stock concentration of IL18 was 750 μM stored in Tris-HCl buffer at −80° C. For treatment use, compounds were diluted in sterile PBS to 100 times the intended treatment concentration and administered into wells containing 198 μl media at volumes of 2 μl. Total DMSO contents for all vehicles was less than 0.02% prior to treatment, and less than 0.0002% within wells following treatment.
HEK-Blue IL18 cells were transferred from flasks and seeded at 40-50% confluency on 96-well culture plates 6 hours prior to treatment.
Phase I: Cells were treated with compounds at concentrations of […], 7.5 pM, and 1.5 pM, with three replicate wells for each concentration, and six replicate wells with no compound treatment (NT). All wells were then immediately co-treated with recombinant human IL18 at one concentration between 15 pM-100 pM. Following treatments, cells were incubated at 37° C. in 5% CO2 for 18 hours. Cell confluency typically reached 70-80% (˜80,000-100,000 cells per well) by this point, 24 hours after seeding.
To detect SEAP activity, 20 μL supernatant from each well was transferred and mixed with 180 μl alkaline phosphatase detection medium (QUANTi-Blue, InvivoGen, California, USA), in a separate 96-well plate and incubated for 3 hours at room temperature. Supernatant SEAP activity was measured by reading the optical density (OD) at 640 nm using a spectrophotometer. OD values were standardized to NT mean=1.
Statistical analysis was performed GraphPad Prism (California, USA) software. One-Way analysis of variance (ANOVA) with Dunnett's post-hoc analysis was used to determine significant variation between treatment and control (NT) groups treated only with IL18.

[4] = tested on: Primary human saphenous vein smooth muscle (SMC); assay: Alamar Blue assay for cell toxicity and proliferation, smooth muscle cells; settings: 10 nM-10 μM, up to 72 hours; FIGS. 3D-3F, 4A, 4B
Experimental: Primary human saphenous vein smooth muscle (SMC) and endothelial cells (EC) were left untreated or treated with inhibitor compounds (10 nM-10 μM) for a period of 3-4 days. Cell proliferation was measured using our previously published Alamar Blue Assay (Monahan et al., FASEB J., 23:557-564, 2009; Yoshida et al., J. Am. Coll. Surg. 213:668-67, 2011).

IL18 [5] = biological target: T1, IL18 (Homo sapiens, UniProt Q14116); assay: Microscale Thermophoresis (MST) binding; parameters: Recombinant IL18 was fluorescently labelled using the lysine reactive Pico RED NT647 dye
T1 sequence (Q14116 37-193): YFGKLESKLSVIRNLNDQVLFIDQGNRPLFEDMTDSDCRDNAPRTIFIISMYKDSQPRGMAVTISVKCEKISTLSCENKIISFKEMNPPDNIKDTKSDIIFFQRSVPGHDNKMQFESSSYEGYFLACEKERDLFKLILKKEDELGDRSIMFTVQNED
Experimental: Microscale Thermophoresis
Recombinant IL18 was fluorescently labelled using the lysine reactive Pico RED NT647 dye from NanoTemper Technologies and stored in a PBS buffer containing 0.05% TWEEN (Buffer A). Stock concentration of labelled IL18 was […]. Working concentrations of IL18 were diluted in Buffer A to 10, 40, or 50 nM. Except for the positive control, IL18BP, stock concentration for all compounds, or ligands, was 10-25 mM in 100% DMSO. Ligands were diluted in Buffer A to working concentrations of 50-500 μM. Containing 0.8-2% DMSO. Stock concentration of IL8BP, was 50 μM, stored in 20 mM Tris-HI buffer (pH 8.0) containing 0.4 M Urea and 10% glycerol (Buffer B). Prior to MST experiments being performed 16 preparations of two-fold serial dilutions of ligand in uniform buffer, starting with the working Uigand concentration, were incubated with equal volumes of a fixed concentration of labelled IL8. After 30 minutes incubation at room temperature, 16 Monolith NT. 15 standard capillaries were loaded with 10 μl volumes of each of the ligand/IL18 preparations. Tests described in Results were run at 3700.
Experiments were performed on a Monolith NT.115Pico machine (NanoTemper Technologies GmbH, Germany). Data quality and analysis and graphic rendering were performed using MO.Affinity Analysis v2.3 software from NanoTemper technologies. Evaluation strategy for all analyses was standardized to measure relative change of fluorescence (FNorm %) over a 2.5 second of laser induced temperature shift per capillary. Statistical analysis was performed using NanoTemper's MOControl software. The results of this assay for compounds 1, 10, and 15 are shown in FIGS. 7, 8, 9A, 9B, and […] and Table 3 describes the MST assay conditions.

[6] = tested on: IFN-γ gene expression in NK92 cells; assay: IFN-γ gene expression induction in NK-92 cells (qRT-PCR); type: cell-based; settings: 24 hours
Experimental: IFN-γ Gene Expression Induction in NK-92 Cells
IFN-γ gene and protein expression induction is a standard to measure IL-18 activity in NK92 cells (Kalina et al., J. Immunol. 165:1307-1313, 2000).
NK92 cells were treated with 1 μM concentration of compounds 1, 10, or […]. […] 24 hours after treatment, total RNA was harvested and qRT-PCR was conducted using a previously published protocols (Raof et al., BMC Genomics, 17-20, 2016; Monahan et al., FASEB J., 23:557-564, 2009) to measure the gene expression of IFN-γ.

[7] = tested on: Primary human saphenous vein endothelial cells (EC); assay: Alamar Blue assay for cell toxicity and proliferation, endothelial cells; type: cell-based; settings: 10 nM-10 μM, up to 76 hours; FIGS. 3A-3C
Text: Alamar Blue Assay for Cell Toxicity and Proliferation

IL18 [8] = biological target: T1, IL18; settings: background statement; read-out: affinity for hIL18; cited from earlier work
[9] = labelled IL18, 37.0° C., n 2, Table 3
[10] = FIG. 6, compound 1 μM, no treatment 1.33±0.85
[11] = FIG. 5, compound 1 μM, no treatment 1.06±0.38

Molecule: C[S+]([O-])c1ccc(-c2nc(-c3ccc(F)cc3)c(-c3ccncc3)[nH]2)cc1 (stereo not drawn) [Compound 1V]
IFN-γ expression in NK92 cells (literature statement) [1]: known inhibitor of IFN-γ expression in NK92 cells

Kd (IL18 [5]; FIGS. 9A-9C): 2.27 nM
Kd (IL18 [5]; [9]): 2.27 nM
Molecule: O=C1c2nn[nH]c2C(=O)c2nn[nH]c21 [Compound 10]
IL-6 expression [2]: significantly inhibited
IL-8 expression [2]: significantly inhibited
TNF expression [2]: significantly inhibited
IL-18 activity (SEAP reporter) (IL18 [3]): significantly reduce IL-18 activity
toxicity in SMC (Alamar Blue) [4]: no toxicity

Molecule: Nc1cccc(Cc2cccc(N)c2)c1 [Compound 1]
IL-6 expression [2]: significantly inhibited
IL-8 expression [2]: significantly inhibited
TNF expression [2]: significantly inhibited
IL-18 activity (SEAP reporter) (IL18 [3]): significantly reduce IL-18 activity
IFN-γ expression [6, 10]: 0.04±0.02
Kd (IL18 [5]; FIGS. 9A-9C): 60.6 nM
Kd (IL18 [5]; [9]): 60.6 nM

Molecule: IL-18: Interleukin-18, pro-inflammatory cytokine used as stimulus of IFN-γ expression
IFN-γ expression [6, 11]: 5.52±3.43
IFN-γ expression [6, 10]: 7.9±7.23

Kd (IL18 [5]; FIG. 9C): 5600 nM
Kd (IL18 [5]; [9]): 5640 nM
Molecule: CC(C)c1ccc(NC(=N)NC(=N)N)cc1 [Compound 15]
IL-18 activity (SEAP reporter) (IL18 [3]): significantly reduce IL-18 activity
toxicity in SMC (Alamar Blue) [4]: no toxicity
IFN-γ expression [6, 11]: 0.99±0.38
toxicity in EC (Alamar Blue) [7]: no toxicity

Molecule: Cc1ccc(Cc2ccc(C)c(N)c2)cc1N [Compound 5]
IL-6 expression [2]: significantly inhibited
IL-8 expression [2]: significantly inhibited
TNF expression [2]: significantly inhibited

Kd (IL18 [5]; FIGS. 9A-9C): 1.85 nM
Kd (IL18 [5]; [9]): 1.85 nM
B1: IL18BP: Interleukin-18 Binding Protein, naturally occurring IL18 antagonist, soluble protein with a single Ig domain; positive control (protein, UniProt O95998 31-194, looked up)
Interleukin-18-binding protein: TPVSQTTTAATASVRSTKDPCPSQPPVFPAAKQCPALEVTWPEVEVPLNGTLSLSCVACSRFPNFSILYWLGNGSFIEHLPGRLWEGSTSRERGSTGTQLCKALVLEQLTPALHSTNFSCVLVDPEQVVQRHVVLAQLWAGLRATLPPTQEALPSSHSSPQQQG
IL-18 activity (SEAP reporter) (IL18 [3]): significantly reduce IL-18 activity
Kd (IL18 [8]): 0.4 nM
